{
  "source": "patent US20220145406A1",
  "about": "“BIOMARKERS, AND USES IN TREATMENT OF VIRAL INFECTIONS, INFLAMMATIONS, OR CANCER” (ABIVAX, priority 2018, published 2022)",
  "key": {"[1]": {"test_system": "miR-124 (miR-124-1, miR-124-2, miR-124-3 loci)", "assay": "RNA CaptureSeq read counts at the miR-124 loci in PBMCs", "format": "cell-based, human", "details": "PBMCs treated with ABX464", "method": "(§1) Total RNA was extracted from infected and uninfected PBMC samples using TRIzol reagent (Invitrogen) following the manufacturer's protocol. The RNA concentrations and purity were determined using the RNA 6000 Bioanalyzer kit (Agilent). For cDNA synthesis, 1 μg of total RNA was treated with DNase I (Invitrogen) and then utilized as a template for reverse transcription using the Verso cDNA kit with a blend of random hexamers and anchored oligo-dT (Thermo Scientific), according to the manufacturer's instructions. After KAPA Hyper Prep (ROCHE) library preparation from 1 μg total RNA, we proceeded with SeqCap EZ capture (ROCHE) following the manufacturer's recommendations. Hybrid selection was performed with a custom SeqCap EZ Choice Library (Roche NimbleGen) containing the following regions; chromosome 8 (9,760,617 to 9,761,780 and 65,285,285 to 65,296,944). chromosome 20 (61,797,549 to 61,812,855), chromosome 1 (1,102,000 to 1,106,000), chromosome 13 (92,000,074 to 92,006,833), chromosome 15 (22,512,831 to […]) and the genome of the HIV Ada8 strain. This library was designed through the NimbleDesign portal (v1.2.R1) using genome build hg19 NCBI Build 37.1/GRCh37. Sequencing was performed on a NextSeq 500 (Illumina) with 18 samples on a HighOutput Cartridge (2×400 million reads of 75 bases each).\n(§2) miR-124 is encoded from three independent genes, miR-124-1, miR-124-2, and miR-124-3, located on human chromosomes 8 and 20 (FIG. 4A). To determine which of these genes is induced by ABX464, we employed targeted RNA CaptureSeq to assess the full depth of the transcriptome. […] The total number of reads for untreated as well as ABX464 treated samples varied between 2 and 30 million in infected and uninfected PBMCs (Table V). The number of reads from the three loci encoding miR-124 in the treated samples were 4- to 12-fold higher than in the untreated samples (FIG. 4B, Table V), confirming that ABX464 led to a large increase in miR-124. […]"}, "miR-429": {"test_system": "miR-429", "assay": "RNA CaptureSeq read counts at the control locus miR-429", "format": "cell-based, human", "details": "PBMCs; control locus outside the miR-124 region", "method": "Total RNA was extracted from infected and uninfected PBMC samples using TRIzol reagent (Invitrogen) following the manufacturer's protocol. The RNA concentrations and purity were determined using the RNA 6000 Bioanalyzer kit (Agilent). For cDNA synthesis, 1 μg of total RNA was treated with DNase I (Invitrogen) and then utilized as a template for reverse transcription using the Verso cDNA kit with a blend of random hexamers and anchored oligo-dT (Thermo Scientific), according to the manufacturer's instructions. After KAPA Hyper Prep (ROCHE) library preparation from 1 μg total RNA, we proceeded with SeqCap EZ capture (ROCHE) following the manufacturer's recommendations. […] Sequencing was performed on a NextSeq 500 (Illumina) with 18 samples on a HighOutput Cartridge (2×400 million reads of 75 bases each).\nas §2, with “4A).” for “4A). To determine which of these genes is induced by ABX464, we employed targeted RNA CaptureSeq to assess the full depth of the transcriptome.”"}, "HIV RNA": {"test_system": "HIV RNA", "assay": "RNA CaptureSeq of HIV RNA splicing in infected PBMCs", "format": "cell-based, HIV-1", "method": "as §1\nTo profile viral transcriptional events modulated by ABX464 and thereby assess the full depth of the HIV transcriptome, we employed a recently described targeted RNA capture and sequencing strategy (RNA CaptureSeq). This strategy involves the construction of tiling arrays across the HIV genome, against which cDNAs are hybridized, eluted and sequenced. RNA CaptureSeq is similar to previous in-solution capture methods and exome sequencing approaches, but when combined with deep-sequencing technology, provides saturating coverage and permits the robust assembly of rare and unannotated HIV transcripts.\nPBMCs from 6 HIV-negative donors were infected with the YU-2 strain, followed by treatment with ABX464. […] After cDNA capture from infected cells that were untreated or treated with ABX464, libraries were prepared and sequenced using an Illumina sequencing facility. To highlight potential new splicing events induced by ABX464, we used a custom bioinformatics pipeline with the main step involving the assembly of putative transcripts from targeted RNA sequencing reads to construct contigs (Illumina paired-end 2×75 bp) (FIGS. 6 A and B). The putative transcripts (contigs) were then mapped to the HIV genome. The HIV profiling datasets used in our analysis yielded high sequence coverage (2 to 30 million reads for the 9 kb genome), allowing deep quantification of HIV splice variants.\nTo test whether enhanced splicing by ABX464 generates new viral RNA variants, the splicing events were filtered and analyzed. After mapping the contigs to the genome of the YU-2 strain, the latter was used as an anchor for additional clustering and assembly of new HIV transcripts. The partial gene structures generated by the spliced alignment were merged whenever they shared consecutive splicing sites spanning an intronic viral sequence. The superstructures so formed correspond to all possible HIV gene structures for which each complete exon is supported by at least one of the alignments. At the HIV transcript level, this led to the formation of superassemblies, where each superassembly is a merge of initial contigs matching a predicted superstructure. […] FIG. 1C and Table III present the distribution of the number of contigs that were merged to form one superassembly for each donor. […]"}, "[2]": {"details": "PBMCs infected with YU2, treated with ABX464, one value per donor library"}},
  "note": "“And” between values parts separate entries of the source, which are not always exact repeats. Equal values may be shown once.",
  "data": [
    {"smiles": "FC(F)(F)Oc1ccc(Nc2ccc3cccc(Cl)c3n2)cc1", "note": "[ABX464, 8-chloro-N-(4-(trifluoromethoxy)phenyl)quinolin-2-amine]", "values": [
      {"measurement": "read counts mir124.2", "setting": "[1]; one value per donor library", "result": "704 and 4 and 4222 and 362 and 2326 and 5452"},
      {"measurement": "read counts mir124.3", "setting": "[1]; one value per donor library", "result": "6439 and 701 and 21941 and 2542 and 14460 and 7772"},
      {"measurement": "read counts mir124.1", "setting": "[1]; one value per donor library (D1, D4-D8)", "result": "4014 and 7114 and 4748 and 324 and 2486 and 1088"},
      {"measurement": "expression of miR-429", "setting": "miR-429", "result": "no effect"},
      {"measurement": "assembled contigs corresponding to spliced RNAs", "setting": "HIV RNA; ABX464-treated PBMC samples infected with YU-2", "result": 90, "unit": "%"},
      {"measurement": "contig counts spliced RNA transcripts Gag", "setting": "HIV RNA; [2]", "result": "18 and 42 and 25 and 13 and 19 and 26"},
      {"measurement": "contig counts spliced RNA transcripts Pol", "setting": "HIV RNA; [2]", "result": "67 and 61 and 17 and 14 and 12 and 35"},
      {"measurement": "contig counts spliced RNA transcripts Vif", "setting": "HIV RNA; [2]", "result": "32 and 34 and 15 and 16 and 12 and 25"},
      {"measurement": "contig counts spliced RNA transcripts env", "setting": "HIV RNA; [2]", "result": "59 and 42 (2×) and 37 and 13 and 35"},
      {"measurement": "contig counts spliced RNA transcripts rev", "setting": "HIV RNA; [2]", "result": "23 and 21 and 17 and 9 and 12 and 29"},
      {"measurement": "contig counts spliced RNA transcripts tat", "setting": "HIV RNA; [2]", "result": "16 and 18 (2×) and 19 and 15 and 24"},
      {"measurement": "contig counts spliced RNA transcripts vpr", "setting": "HIV RNA; [2]", "result": "14 (2×) and 9 and 12 (2×) and 11"},
      {"measurement": "contig counts spliced RNA transcripts vpu", "setting": "HIV RNA; [2]", "result": "7 and 5 and 13 and 11 (2×) and 17"},
      {"measurement": "contig counts Complete_mRNA", "setting": "HIV RNA; PBMCs infected with YU2, treated with ABX464, one value per donor library (D1, D4-D8)", "result": "11 and 13 and 6 (2×) and 32 and 15"}
    ]}
  ]
}
